According to PubChem BioAssay AID274 (DTP/NCI, 2004):
Values joined by “and” are separate entries in the source; they are usually repeats but may differ in a detail not shown here. Equal values may be shown once. Toxic doses and inconclusive results are not listed. Rule for the calls: active = survival T/C of 150% or more; inactive = T/C below 125% in these data. Peptide text beside a SMILES is read from it. * marks the point of attachment. Trt = c1ccc(C(c2ccccc2)(c2ccccc2)*)cc1; Cbz = O=C(OCc1ccccc1)*; Bn = c1ccc(C*)cc1; βAla = NCCC(=O)O

Tested on: BDF1 mice, Lewis lung carcinoma iv, survival T/C
Experiment: NCI In Vivo Anticancer Drug Screen. Data for tumor model Lewis Lung Carcinoma (intravenous) in B6D2F1 (BDF1) mice
Details: endpoint: median survival time, higher = longer survival
Method: The antitumor activity of compounds was measured in mice bearing transplantable tumors. Survival or tumor size were measured and the results are expressed as the measurement made in the treated group (T) divided by the measurement made in the vehicle treated control group (C). The tumor model used in this assay is Lewis Lung Carcinoma (intravenous) in B6D2F1 (BDF1) mice

[1] = dose: 25.0 mg/kg/injection, schedule: Q01DX009 (ip), vehicle: Klucel (hydroxypropylcellulose) (HPC)
[2] = dose: 50.0 mg/kg/injection, schedule: Q01DX009 (ip), vehicle: Klucel (hydroxypropylcellulose) (HPC)
[3] = dose: 100.0 mg/kg/injection, schedule: Q01DX009 (ip), vehicle: Klucel (hydroxypropylcellulose) (HPC)
[4] = dose: 12.5 mg/kg/injection, schedule: Q01DX009 (ip), vehicle: saline with Tween-80
[5] = dose: 25.0 mg/kg/injection, schedule: Q01DX009 (ip), vehicle: saline with Tween-80
[6] = dose: 50.0 mg/kg/injection, schedule: Q01DX009 (ip), vehicle: saline with Tween-80
[7] = dose: 100.0 mg/kg/injection, schedule: Q01DX009 (ip), vehicle: saline with Tween-80
[8] = dose: 200.0 mg/kg/injection, schedule: Q01DX009 (ip), vehicle: saline with Tween-80
[9] = dose: 400.0 mg/kg/injection, schedule: Q01DX009 (ip), vehicle: saline with Tween-80
[10] = dose: 12.5 mg/kg/injection, schedule: Q01DX009 (ip), vehicle: Klucel (hydroxypropylcellulose) (HPC)
[11] = dose: 200.0 mg/kg/injection, schedule: Q01DX009 (ip), vehicle: Klucel (hydroxypropylcellulose) (HPC)
[12] = dose: 6.25 mg/kg/injection, schedule: Q01DX009 (ip), vehicle: saline with Tween-80
[13] = dose: 5.0 mg/kg/injection, schedule: Q01DX009 (ip), vehicle: saline with Tween-80
[14] = dose: 10.0 mg/kg/injection, schedule: Q01DX009 (ip), vehicle: saline with Tween-80

Measured: T/C

CC12C(=O)C=CCC1=CCC1C2CCC2(O)C(=O)OC3(C)C4CC5(C)C(COC16OC23C5C6=O)C(=O)O4 (configuration not stated)
inactive: [1] 101 % of control | [2] 100 % of control | [3] 105 % of control

CC[C@]1(O)C[C@H]2CN(CCc3c([nH]c4ccccc34)[C@@](C(=O)OC)(c3cc4c(cc3OC)N(C)[C@H]3[C@@](O)(C(=O)OC)[C@H](OC(C)=O)[C@]5(CC)C=CCN6CC[C@]43[C@@H]65)C2)C1
inactive: dose: 0.6 mg/kg/injection, schedule: Q04DX003 (ip), vehicle: saline 106 % of control | dose: 125.0 micrograms/kg/injection, schedule: Q04DX003 (ip), vehicle: saline 93 % of control (2×) and 102 % of control | dose: 250.0 micrograms/kg/injection, schedule: Q04DX003 (ip), vehicle: saline 92 % of control (2×) and 95 % of control | dose: 360.0 micrograms/kg/injection, schedule: Q01DX009 (ip), vehicle: saline 111 % of control | dose: 500.0 micrograms/kg/injection, schedule: Q04DX003 (ip), vehicle: saline 92 % of control (2×) and 95 % of control | dose: 600.0 micrograms/kg/injection, schedule: Q01DX009 (ip), vehicle: saline 92 % of control

NC(Cc1cc([N+](=O)[O-])ccc1CN(CCCl)CCCl)C(=O)O (configuration not stated)
inactive: dose: 3.24 mg/kg/injection, schedule: Q04DX003 (ip), vehicle: Klucel (hydroxypropylcellulose) (HPC) 102 % of control | dose: 5.4 mg/kg/injection, schedule: Q04DX003 (ip), vehicle: Klucel (hydroxypropylcellulose) (HPC) 115 % of control | dose: 15.0 mg/kg/injection, schedule: Q04DX003 (ip), vehicle: Klucel (hydroxypropylcellulose) (HPC) 102 % of control

C[C@@]12C(=O)OC(=O)[C@]1(C)[C@H]1CC[C@@H]2O1
inactive: dose: 0.06 mg/kg/injection, schedule: Q01DX009 (ip), vehicle: Klucel (hydroxypropylcellulose) (HPC) 104 % of control | dose: 0.12 mg/kg/injection, schedule: Q01DX009 (ip), vehicle: Klucel (hydroxypropylcellulose) (HPC) 108 % of control | dose: 0.25 mg/kg/injection, schedule: Q01DX009 (ip), vehicle: Klucel (hydroxypropylcellulose) (HPC) 95 % of control | dose: 0.5 mg/kg/injection, schedule: Q01DX009 (ip), vehicle: Klucel (hydroxypropylcellulose) (HPC) 108 % of control | dose: 1.0 mg/kg/injection, schedule: Q01DX009 (ip), vehicle: Klucel (hydroxypropylcellulose) (HPC) 97 % of control

COC1CC(CC2CCC(C)C(C(C)C(=O)O)O2)OC2(OC(C)(C3CCC(C)(C4OC(C5OC(O)(CO)C(C)CC5C)CC4C)O3)CC2C)C1C (configuration not stated)
inactive: dose: 0.31 mg/kg/injection, schedule: Q01DX009 (ip), vehicle: Klucel (hydroxypropylcellulose) (HPC) 99 % of control | dose: 0.63 mg/kg/injection, schedule: Q01DX009 (ip), vehicle: Klucel (hydroxypropylcellulose) (HPC) 94 % of control | dose: 1.25 mg/kg/injection, schedule: Q01DX009 (ip), vehicle: Klucel (hydroxypropylcellulose) (HPC) 100 % of control | dose: 5.0 mg/kg/injection, schedule: Q01DX009 (ip), vehicle: Klucel (hydroxypropylcellulose) (HPC) 96 % of control

CN1CCN(CCCN2c3ccccc3Sc3ccc(C(F)(F)F)cc32)CC1
inactive: dose: 3.12 mg/kg/injection, schedule: Q01DX009 (ip), vehicle: saline 109 % of control | dose: 6.25 mg/kg/injection, schedule: Q01DX009 (ip), vehicle: saline 120 % of control | dose: 12.5 mg/kg/injection, schedule: Q01DX009 (ip), vehicle: saline 109 % of control

Cc1ccc(S(=O)(=O)NC(=O)OC23COCN2COC3)cc1
inactive: [4] 98 % of control | [5] 105 % of control | [6] 96 % of control | [7] 98 % of control | [8] 98 % of control | [9] 101 % of control

COc1cc(Cl)ccc1C
inactive: [4] 111 % of control | [5] 107 % of control | [6] 97 % of control | [7] 108 % of control | [8] 102 % of control | [9] 98 % of control

CCCCCCCCCCCCCCC/C([O-])=N/[N+](C)(C)CC(C)O (configuration not stated)
inactive: dose: 12.5 mg/kg/injection, schedule: Q01DX001 (ip), vehicle: saline 95 % of control | dose: 25.0 mg/kg/injection, schedule: Q01DX001 (ip), vehicle: saline 96 % of control | dose: 50.0 mg/kg/injection, schedule: Q01DX001 (ip), vehicle: saline 97 % of control | dose: 100.0 mg/kg/injection, schedule: Q01DX001 (ip), vehicle: saline 104 % of control | dose: 200.0 mg/kg/injection, schedule: Q01DX001 (ip), vehicle: saline 108 % of control | dose: 400.0 mg/kg/injection, schedule: Q01DX001 (ip), vehicle: saline 102 % of control

Cc1ccc(NCC2(/N=C/c3ccccc3)OC(CO)C(O)C2O)cc1 (configuration not stated)
inactive: [10] 103 % of control | [1] 95 % of control | [2] 100 % of control | [3] 99 % of control | [11] 96 % of control | dose: 400.0 mg/kg/injection, schedule: Q01DX009 (ip), vehicle: Klucel (hydroxypropylcellulose) (HPC) 86 % of control

CCC1OCC(C(Cl)CCl)O1 (configuration not stated)
inactive: dose: 3.12 mg/kg/injection, schedule: Q01DX009 (ip), vehicle: saline with Tween-80 103 % of control | [12] 97 % of control | [10] 97 % of control | [4] 108 % of control | [1] 98 % of control | [5] 109 % of control | [2] 97 % of control | [6] 94 % of control | [3] 96 % of control | [7] 109 % of control | [11] 97 % of control

CCCCCCCCCCCC(c1ccccc1)[N+](C)(C)Cc1ccccc1 (configuration not stated)
inactive: dose: 1.0 mg/kg/injection, schedule: Q01DX009 (ip), vehicle: saline 98 % of control | dose: 2.0 mg/kg/injection, schedule: Q01DX009 (ip), vehicle: saline 124 % of control

COC(=O)C(CSC(c1ccccc1)(c1ccccc1)c1ccccc1)NC(=O)C(CSCc1ccccc1)NC(=O)CCNC(=O)OCc1ccccc1 (configuration not stated) ({Cbz-βAla}-Cys(Bn)-Cys(Trt)-OMe; configuration not given here)
inactive: [10] 104 % of control | [1] 96 % of control | [2] 103 % of control | [3] 98 % of control | [11] 97 % of control

O=C(CCN1CC1)Nc1cccc(NC(=O)CCN2CC2)c1
inactive: dose: 2.5 mg/kg/injection, schedule: Q01DX009 (ip), vehicle: saline with Tween-80 110 % of control | [13] 106 % of control | [14] 123 % of control

COC(=O)c1[nH]c(=O)[nH]c(=O)c1F
inactive: [12] 106 % of control | [4] 115 % of control | [5] 98 % of control

COc1cccc2c1C(=O)c1c(O)c3c(c(O)c1C2=O)C[C@@](O)(C(=O)CO)C[C@@H]3OC1CC(N)CC(C)O1 (some centres not stated)
inactive: dose: 0.18 mg/kg/injection, schedule: Q01DX009 (ip), vehicle: water 108 % of control | dose: 0.37 mg/kg/injection, schedule: Q01DX009 (ip), vehicle: water 112 % of control

O=C1C=CC(=Nc2ccc3c(c2)C(Br)c2ccccc2-3)O1 (configuration not stated)
inactive: [13] 115 % of control | [14] 111 % of control | dose: 20.0 mg/kg/injection, schedule: Q01DX009 (ip), vehicle: saline with Tween-80 112 % of control
